Patent US11406664B2, “Ferric maltol compositions for use in the treatment or prevention of cancer and tumours” (Shield TX (UK) Limited, priority 2016, dated 2022)

Assays:
[1] = system: Hutu 80 human epithelial duodenum adenocarcinoma cell line; test: Proliferation assay by real time live cell imaging (Incucyte), Hutu 80; format: cell-based; settings: for effect on cancer cell proliferation, ligand not bound to iron: ligand-only control; for effect on cancer cell proliferation, ligand not bound to iron / effect on cell proliferation: 72 h; for effect on cell proliferation: iron compounds, 5 or 10% FBS, at concentrations predicted in gut lumen with iron supplementation
Method: FIG. 2: Inhibition of cell proliferation in the Hutu 80 human epithelial duodenum adenocarcinoma cell line with different iron compounds as assessed by real time live cell imaging (Incucyte™) Cells were treated for 72 h with the indicated iron compounds in complete growth media containing 5% FBS (A) or 10% FBS (B), the corresponding ‘ligand-only’ controls are shown in panels C and D. Normalised cell proliferation corresponds to the area under the proliferation curve for cells grown in media supplemented with each compound divided by the area under the curve for cells grown in media alone (i.e. without any of the supplemented compounds). Data are presented as mean with SEM (n=2 independent experiments with 3 replicates for each experiment).
(§1) A stock solution of ferric citrate (FeCitrate) 8 mM [Fe] was produced by adding citric acid to ferric chloride on a 1:1 molar ratio. Ferric trimaltol (FTMB) was produced from iron hydroxides and maltol, and the stock solution of circa 8 mM [Fe] was produced by dissolving it in ultrapure water. All stock solutions were filter sterilised (0.2 μm).
(§2) Three different epithelial cancer cell lines were used: colorectal adenocarcinoma [Caco2 (ATCC) and HT29(ECAAC)] and duodenum adenocarcinoma [Hutu 80 (ATCC)]. The cells were grown in an incubator at 37° C. and an atmosphere of 5% CO2 and 95% air at a relative humidity of approximately 95%. The cancer cells were grown in Gibco® MEM supplemented with 5 or 10% foetal bovine serum (FBS) as stated, 1% penicillin/streptomycin (10.000 Units/ml Penicillin, 10.000 μg/ml Streptomycin) and 1% fungizone (Amphotericin B, 250 μg/ml).
(§3) Working solutions of 2 mM [Fe] for each iron compound were prepared fresh on the day of the experiment by diluting the stock solutions of the different iron materials in complete cell growth medium and these 2 mM solutions were used in the serial dilutions to achieve the 8 different concentrations for the proliferation assay (0.89, 0.49, 0.27, 0.15, 0.08, 0.05, 0.026, 0.015) in 96-well ImageLock cell culture plates. A control condition containing only complete growth medium without any iron compound added was also tested. The cells were seeded at a density of 10,000-20,000 cells/well. The plates were incubated in a Live Content Imaging Incubator (Incucyte ZOOM, Essen BioScience Ltd., UK) and images and confluence data were acquired every 3 hours for 72 hours post-seeding. Within each experiment each iron concentration was tested in triplicate wells.
(§4) The plot of confluence (%) vs time (h) was obtained for each iron compound and concentration. The area under the curve (AUC) was calculated and plotted against the concentration for each test compound or the control. The AUC for each iron compound was normalised against that of the control (i.e. complete growth medium alone).

[2] = system: HT29 human epithelial colorectal adenocarcinoma cell line; test: Proliferation assay by real time live cell imaging (Incucyte), HT29; format: cell-based; settings: for effect on cancer cell proliferation, ligand not bound to iron: ligand-only control; for effect on cancer cell proliferation, ligand not bound to iron / effect on cell proliferation: 72 h; for effect on cell proliferation: iron compounds, 5 or 10% FBS, at concentrations predicted in gut lumen with iron supplementation
Method: FIG. 3: Inhibition of cell proliferation in the HT29 human epithelial colorectal adenocarcinoma cell line with the different iron compounds as assessed by real time live cell imaging (Incucyte™). Conditions were as above in the legend to FIG. 2.
as §1, §2, §3, §4

intestinal cancer = settings: animal models; cited from earlier work
[3] = patients with inflammatory bowel disease; cited from earlier work
[4] = system: Caco2 human epithelial colorectal adenocarcinoma cell line; test: Proliferation assay by real time live cell imaging (Incucyte), Caco2; format: cell-based; settings: for effect on cell proliferation: iron compounds, 5 or 10% FBS, at concentrations predicted in gut lumen with iron supplementation
Method: FIG. 1. […] Cells were treated for 72 h with the indicated iron compounds in complete growth media containing 5% FBS (A) or 10% FBS (B), the corresponding ‘ligand-only’ controls are shown in panels C and D. Normalised cell proliferation corresponds to the area under the proliferation curve for cells grown in media supplemented with each compound divided by the area under the curve for cells grown in media alone (i.e. without any of the supplemented compounds). Data are presented as mean with SEM (n=3 independent experiments with 3 replicates for each experiment).
as §1, §2, §3, §4

[5] = review of real time-recorded cell images, concentration as iron

Molecule	effect on cancer cell proliferation, ligand not bound to iron [1]	effect on cancer cell proliferation, ligand not bound to iron [2]	effect on intestinal cancer (intestinal cancer)	effect on cell proliferation [1]	effect on cell proliferation [2]	effect on cell proliferation ([4]; 72 h)	further results
O=C(O)CN(CCN(CC(=O)O)CC(=O)O)CC(=O)O [EDTA]	moderate inhibition	moderate inhibition					
O=C([O-])CN(CCN(CC(=O)[O-])CC(=O)[O-])CC(=O)[O-].[Fe+3].[Na+] [ferric EDTA, ferric EDTA sodium salt]			enhance intestinal cancer	promoted proliferation	promoted proliferation		
Cc1occc(=O)c1[O-].Cc1occc(=O)c1[O-].Cc1occc(=O)c1[O-].[Fe+3] [ferric trimaltol]				inhibited cancer cell proliferation	inhibited cancer cell proliferation	inhibited cancer cell proliferation	iron concentration at which cells were non-proliferative [1, 5]: 400 µM; iron concentration at which cells were poorly proliferating [1, 5]: 150 µM; iron concentration at which cells were non-proliferative [2, 5]: 80 µM; iron concentration at which cells were poorly proliferating [2, 5]: 50 µM; correction of iron deficiency anaemia [3]: effectively delivers iron to correct iron deficiency anaemia; iron concentration at which cells were non-proliferative [4, 5]: 80 µM; iron concentration at which cells were poorly proliferating [4, 5]: 50 µM
O.O.O.O.O.O.O.O=S(=O)([O-])[O-].[Fe+2] [ferrous sulphate, Ferrous sulphate heptahydrate]				promoted proliferation	promoted proliferation		
Cc1occc(=O)c1O [maltol, 3-Hydroxy-2-methyl-4H-pyran-4-one]	moderate inhibition	moderate inhibition					effect on cancer cell proliferation, ligand not bound to iron ([4]; ligand-only control, 72 h): moderate inhibition
ferric citrate			enhance intestinal cancer	promoted proliferation	promoted proliferation	promoted proliferation	
